Structures can show the parent of a compound that is named as a salt.
Legend:
[1] = anti-inflammatory activity (test not given); conditions: in vivo
Protocol: (§1) Anti-inflammatory activity was determined using (1) the inhibition of carrageenin-induced foot edema test essentially described by Van Arman et al., J. Pharmocol. Exptl. Therap. 150, 328 (1965) as a modification of the procedure of Winter et al., Proc. Soc. Exp. Biol. and Med. 111, 544 (1962) and (2) a modification of the inhibition of adjuvant-induced arthritis test described by Pearson, J. Chronic Diseases 16, 863 (1963) and Glenn et al., Am. J. Vet. Res. 26, 1180 (1965).

[2] = inhibition of carrageenin-induced foot edema test; assay type: in vivo; conditions: for inhibition in vivo at 324 µmol/kg: 0.324 mMole/kg; for inhibition in vivo at 80 µmol/kg: 0.08 mMole/kg; for side effects (footnote e): 4 hours post medication
Protocol: as §1
Representative examples of the compounds of this invention have been tested in the carrageenin edema and adjuvant arthritis tests as described hereinabove and found to have anti-inflammatory activity. Test data, given as percent inhibition at a dose expressed in millimoles (mMole/kg) are presented hereinbelow. All test compounds were administered orally.
The data for a number of examples are presented in several separate groups each representing the test results wherein anti-inflammatory activity was measured at one or more dose levels against a single set of controls.

[3] = inhibition of adjuvant-induced arthritis test; assay type: in vivo; conditions: for inhibition in vivo at 120 µmol/kg: 0.12 mMole/kg
Protocol: Anti-inflammatory activity was determined using (1) the inhibition of carrageenin-induced foot edema test essentially described by Van Arman et al., J. Pharmocol. Exptl. Therap. […] J. Vet.
All test compounds were administered orally.

[4] = acute oral toxicity, standard toxicological test procedures; conditions: in vivo; for LD50 at 168 h: acute oral, read-out: 7-day LD50
Protocol: Acute oral toxicity was determined for Examples 1E and (g) employing standard toxicological test procedures.

SMILES: CCN(CC)CCCC(C)Nc1snc2ccccc12 (stereo not drawn) [3-[4-(diethylamino)-1-methylbutylamino]-2,1-benzisothiazole]
- anti-inflammatory activity (in words) [1]: useful anti-inflammatory activity

SMILES: CCN(CC)CCCC(C)Nc1snc2ccccc12 (stereo not drawn) [(g), 3-[4-(diethylamino)-1-methylbutylamino]-2,1-benzisothiazole diphosphate, reference compound]
- inhibition in vivo at 20 µmol/kg ([2]; po, 0.02 mMole/kg): 0%
- inhibition in vivo at 30 µmol/kg ([3]; po, 0.03 mMole/kg): 0%
- inhibition in vivo at 60 µmol/kg ([3]; po, 0.06 mMole/kg): 1%
- inhibition in vivo at 120 µmol/kg ([3]; po): 4%
- inhibition in vivo at 240 µmol/kg ([3]; po, 0.24 mMole/kg): 0%
- LD50 at 168 h [4]: 1730 mg/kg

SMILES: CCN(CC)CCCC(C)NC(=O)c1ccc(Cl)cc1[N+](=O)[O-] (stereo not drawn) [Example 1B, 4-chloro-N-[4-(diethylamino)-1-methylbutyl]-2-nitrobenzamide]
- inhibition in vivo at 324 µmol/kg ([2]; po): 29%
- inhibition in vivo at 324 µmol/kg ([3]; po, 0.324 mMole/kg): 16%

SMILES: CCN(CC)CCCC(C)NC(=S)c1ccc(Cl)cc1[N+](=O)[O-].Cl (stereo not drawn) [Example 1C, 4-chloro-N-[4-(diethylamino)-1-methylbutyl]-2-nitrothiobenzamide hydrochloride]
- inhibition in vivo at 324 µmol/kg ([2]; po): 38%
- side effects (footnote b) ([3]; oral, 0.324 mMole/kg): loss of hair, yellow urine
- inhibition in vivo at 324 µmol/kg ([3]; po, 0.324 mMole/kg): 60%

SMILES: CCN(CC)CCCC(C)Nc1snc2cc(Cl)ccc12 (stereo not drawn) [Example 1D, 6-chloro-3-[4-(diethylamino)-1-methylbutylamino]-2,1-benzisothiazole]
- anti-inflammatory activity in carrageenin edema assay (in words) ([2]; in vivo): high degree of anti-inflammatory activity
- Carrageenin edema % inhibition ([2]; oral, 0.03 mMole/kg): 19%
- inhibition in vivo at 90 µmol/kg ([2]; po, 0.09 mMole/kg): 14%
- inhibition in vivo at 270 µmol/kg ([2]; po, 0.27 mMole/kg): 29%
- anti-inflammatory activity in adjuvant arthritis assay (in words) ([3]; in vivo): high degree of anti-inflammatory activity
- inhibition in vivo at 120 µmol/kg ([3]; po): 65%
- toxicity (in words) [4]: low toxicity

SMILES: CCN(CC)CCCC(C)Nc1snc2cc(Cl)ccc12 (stereo not drawn) [Example 1E, 6-chloro-3-[4-(diethylamino)-1-methylbutylamino]-2,1-benzisothiazole diphosphate]
- Carrageenin edema % inhibition ([2]; oral, 0.03 mMole/kg): 4%
- Carrageenin edema % inhibition ([2]; oral, 0.09 mMole/kg): 25%
- Carrageenin edema % inhibition ([2]; oral, 0.27 mMole/kg): 39%
- side effects (footnote c) ([2]; oral, 0.64 mMole/kg): hypothermia
- inhibition in vivo at 640 µmol/kg ([2]; po, 0.64 mMole/kg): 60%
- toxicity in adjuvant arthritis test ([3]; oral, 0.24 mMole/kg): toxic
- LD50 at 168 h [4]: 1430 mg/kg

SMILES: CCN(CC)CCCC(C)N(C)c1snc2cc(Cl)ccc12 (stereo not drawn) [Example 2C, 6-chloro-3-{[4-(diethylamino)-1-methylbutyl]methylamino}-2,1-benzisothiazole]
- inhibition in vivo at 324 µmol/kg ([2]; po): 71%
- toxicity in adjuvant arthritis test ([3]; oral, 0.324 mMole/kg): Toxic
- inhibition in vivo at 72 µmol/kg ([3]; po, 0.072 mMole/kg): 0%

SMILES: Clc1ccc2c(NCCN3CCCC3)snc2c1 [Example 3C, 6-chloro-3-{[2-(1-pyrrolidinyl)-ethyl]amino}-2,1-benzisothiazole]
- inhibition in vivo at 30 µmol/kg ([2]; po, 0.03 mMole/kg): 15%
- inhibition in vivo at 90 µmol/kg ([2]; po, 0.09 mMole/kg): 12%
- inhibition in vivo at 270 µmol/kg ([2]; po, 0.27 mMole/kg): 32%
- inhibition in vivo at 320 µmol/kg ([2]; po, 0.32 mMole/kg): 29%
- inhibition in vivo at 640 µmol/kg ([2]; po, 0.64 mMole/kg): 52%
- inhibition in vivo at 324 µmol/kg ([3]; po, 0.324 mMole/kg): 14%

SMILES: CN1CCN(C(=S)c2ccc(Cl)cc2[N+](=O)[O-])CC1 [Example 4B, 1-(4-chloro-2-nitrothiobenzoyl)-4-methylpiperazine]
- inhibition in vivo at 324 µmol/kg ([2]; po): 28%
- inhibition in vivo at 324 µmol/kg ([3]; po, 0.324 mMole/kg): 0%

SMILES: CN1CCN(c2snc3cc(Cl)ccc23)CC1 [Example 4C, 6-chloro-3-(4-methyl-1-piperazinyl)-2,1-benzisothiazole]
- inhibition in vivo at 324 µmol/kg ([2]; po): 41%
- inhibition in vivo at 324 µmol/kg ([3]; po, 0.324 mMole/kg): 10%

SMILES: CN(C)CCNC(=S)c1ccc(Cl)cc1[N+](=O)[O-] [Example 5B, 4-chloro-N-[2-(dimethylamino)ethyl]-2-nitrothiobenzamide hydrochloride]
- inhibition in vivo at 324 µmol/kg ([2]; po): 43%
- inhibition in vivo at 324 µmol/kg ([3]; po, 0.324 mMole/kg): 2%

SMILES: CN(C)CCNc1snc2cc(Cl)ccc12 [Example 5C]
- inhibition in vivo at 30 µmol/kg ([2]; po, 0.03 mMole/kg): 19%
- inhibition in vivo at 90 µmol/kg ([2]; po, 0.09 mMole/kg): 14%
- inhibition in vivo at 270 µmol/kg ([2]; po, 0.27 mMole/kg): 29%
- inhibition in vivo at 324 µmol/kg ([2]; po): 28%
- inhibition in vivo at 324 µmol/kg ([3]; po, 0.324 mMole/kg): 0%

SMILES: CN(C)CCCNC(=S)c1ccc(Cl)cc1[N+](=O)[O-] [Example 6B, 4-chloro-N-[3-(dimethylamino)propyl]-2-nitrothiobenzamide hydrochloride]
- inhibition in vivo at 324 µmol/kg ([2]; po): 39%
- inhibition in vivo at 324 µmol/kg ([3]; po, 0.324 mMole/kg): 8%

SMILES: CN(C)CCCNc1snc2cc(Cl)ccc12 [Example 6C, 6-chloro-3-{[3-(dimethylamino)propyl]amino}-2,1-benzisothiazole dihydrochloride]
- inhibition in vivo at 30 µmol/kg ([2]; po, 0.03 mMole/kg): 0%
- inhibition in vivo at 90 µmol/kg ([2]; po, 0.09 mMole/kg): 24%
- inhibition in vivo at 270 µmol/kg ([2]; po, 0.27 mMole/kg): 41%
- inhibition in vivo at 324 µmol/kg ([2]; po): 35%
- inhibition in vivo at 324 µmol/kg ([3]; po, 0.324 mMole/kg): 0%

SMILES: CN(C)CCCCNC(=S)c1ccc(Cl)cc1[N+](=O)[O-] [Example 7B, 4-chloro-N-[4-(dimethylamino)butyl]-2-nitrothiobenzamide]
- side effects (footnote d) ([2]; oral, 1.11 mMole/kg): salivation
- inhibition in vivo at 1110 µmol/kg ([2]; po, 1.11 mMole/kg): 63%
- inhibition in vivo at 800 µmol/kg ([3]; po, 0.80 mMole/kg): 15%

SMILES: CN(C)CCCCNc1snc2cc(Cl)ccc12 [Example 7C, 6-chloro-3-{[4-(dimethylamino)butyl]amino}-2,1-benzisothiazole]
- inhibition in vivo at 30 µmol/kg ([2]; po, 0.03 mMole/kg): 0%
- inhibition in vivo at 90 µmol/kg ([2]; po, 0.09 mMole/kg): 9%
- inhibition in vivo at 270 µmol/kg ([2]; po, 0.27 mMole/kg): 32%
- inhibition in vivo at 324 µmol/kg ([3]; po, 0.324 mMole/kg): 25%

SMILES: CN1CCN(c2snc3ccc(Cl)cc23)CC1 [Example 8, 5-chloro-3-(4-methyl-1-piperazinyl)-2,1-benzisothiazole]
- inhibition in vivo at 80 µmol/kg ([2]; po): 15%
- inhibition in vivo at 324 µmol/kg ([2]; po): 51%
- inhibition in vivo at 324 µmol/kg ([3]; po, 0.324 mMole/kg): 0%

SMILES: CN(C)CCNc1snc2ccc(Cl)cc12 [Example 9]
- inhibition in vivo at 80 µmol/kg ([2]; po): 8%
- inhibition in vivo at 320 µmol/kg ([2]; po, 0.32 mMole/kg): 0%
- inhibition in vivo at 324 µmol/kg ([2]; po): 0%
- inhibition in vivo at 640 µmol/kg ([2]; po, 0.64 mMole/kg): 23%

SMILES: CCN(CC)CCCC(C)Nc1snc2ccc(Cl)cc12 (stereo not drawn) [Example 10]
- side effects (footnote e) ([2]; oral, 0.32 mMole/kg): skeletal muscle relaxation, hypothermia and ptosis
- side effects (footnote e) ([2]; oral, 0.64 mMole/kg): skeletal muscle relaxation, hypothermia and ptosis
- inhibition in vivo at 80 µmol/kg ([2]; po): 0%
- inhibition in vivo at 320 µmol/kg ([2]; po, 0.32 mMole/kg): 62%
- inhibition in vivo at 324 µmol/kg ([2]; po): 15%
- inhibition in vivo at 640 µmol/kg ([2]; po, 0.64 mMole/kg): 50%

SMILES: CCN(CCO)CCCC(C)Nc1snc2cc(Cl)ccc12 (stereo not drawn) [Example 11, 6-chloro-3-<{4-[N-ethyl-N-(2-hydroxyethyl)amino]-1-methylbutyl}amino>-2,1-benzisothiazole 1,5-naphthalenedisulfonate]
- inhibition in vivo at 80 µmol/kg ([2]; po): 18%
- inhibition in vivo at 324 µmol/kg ([2]; po): 38%
- inhibition in vivo at 240 µmol/kg ([3]; po, 0.24 mMole/kg): 54%
- inhibition in vivo at 320 µmol/kg ([3]; po, 0.32 mMole/kg): 67%
- inhibition in vivo at 324 µmol/kg ([3]; po, 0.324 mMole/kg): 36%
- inhibition in vivo at 400 µmol/kg ([3]; po, 0.40 mMole/kg): 71%

SMILES: CCN(CC)CC(O)CNc1snc2cc(Cl)ccc12 (stereo not drawn) [Example 12, 6-chloro-3-{[3-(diethylamino)-2-hydroxypropyl]amino}-2,1-benzisothiazole]
- inhibition in vivo at 80 µmol/kg ([2]; po): 14%
- inhibition in vivo at 324 µmol/kg ([2]; po): 35%
- inhibition in vivo at 324 µmol/kg ([3]; po, 0.324 mMole/kg): 16%

SMILES: Clc1ccc2c(NCCN3CCN(c4ccccc4)CC3)snc2c1 [Example 13, 6-chloro-3-{[2-(4-phenyl-1-piperazinyl)ethyl]amino}-2,1-benzisothiazole]
- inhibition in vivo at 64 µmol/kg ([2]; po, 0.064 mMole/kg): 35%
- inhibition in vivo at 80 µmol/kg ([2]; po): 11%
- inhibition in vivo at 324 µmol/kg ([2]; po): 16%

SMILES: CCN(CC)Cc1cc(Nc2snc3ccc(Cl)cc23)ccc1O [Example 14, 5-chloro-3-{[3-(diethylamino)methyl-4-hydroxyphenyl]amino}-2,1-benzisothiazole]
- inhibition in vivo at 80 µmol/kg ([2]; po): 22%
- inhibition in vivo at 324 µmol/kg ([2]; po): 72%
- inhibition in vivo at 80 µmol/kg ([3]; po, 0.08 mMole/kg): 0%

SMILES: CCN(CC)Cc1cc(Nc2snc3cc(Cl)ccc23)ccc1O [Example 15, 6-chloro-3-{[3-(diethylamino)methyl-4-hydroxyphenyl]amino}-2,1-benzisothiazole]
- inhibition in vivo at 320 µmol/kg ([2]; po, 0.32 mMole/kg): 30%
- inhibition in vivo at 640 µmol/kg ([2]; po, 0.64 mMole/kg): 32%

SMILES: CCN(CC)Cc1cc(Nc2snc3ccccc23)ccc1O [Example 16, 3-{[3-(diethylamino)methyl-4-hydroxyphenyl]amino}-2,1-benzisothiazole]
- inhibition in vivo at 80 µmol/kg ([2]; po): 2%
- inhibition in vivo at 324 µmol/kg ([2]; po): 55%
- inhibition in vivo at 324 µmol/kg ([3]; po, 0.324 mMole/kg): 18%

Reference: patent US4112105A, “Anti-inflammatory 3-(substituted-amino)-2,1-benzisothiazoles” (Sterling Drug Inc., priority 1977, dated 1978)
